Assay type in all cases: physicochemical
Data set [1] can be described thus: Confirmation of complex formation with single chelants, Fe3+ ions.
Data set [2] is described as follows: Confirmation of complex formation with single chelants, Cu2+ ions.
Data set [3] is described as follows: Complexing ability test of Dimethylglucamine vs. Aminomethylpropanol. Particulars: for Result: Cu^2+ solution 0,2 mmol/L, each chelant at 0.6 mmol/L, observed color and precipitate. The protocol: The relative complexing ability of the chelant Dimethylglucamine is evaluated vs. Aminomethylpropanol by observing color changes and precipitate formation. In particular Aminomethylpropanol was chosen since in the previous test c) it was shown that Aminomethylpropanol makes complex with Copper that differs in color of Copper complex with Dimethylglucamine. Therefore, it is possible to evaluate the strength of complexation of Aminomethylpropanol and Dimethylglucamine when both chelants are present in solution of Copper^2+ ions by observing the color of solution. To Cu^2+ solutions (c = 0,2 mmol/L), solutions of chelants are added: • Aminomethylpropanol at 0,6 mmol/L • Dimethylglucamine at 0,6 mmol/L • Aminomethylpropanol at 0,6 mmol/L + Dimethylglucamine 0,6 mmol/L

A short description of data set [4]: Complexing ability test vs. EDTA (color changes and precipitate formation). Particulars: for Result: Fe^3+ solution 0,2 mmol/L, observed color and precipitate; for chelating strength for Iron^3+ ions relative to EDTA: both EDTA and chelant present, judged from the colored complex formed. The protocol:
The relative complexing ability of the chelant is evaluated vs. EDTA by observing color changes and precipitate formation.
To Fe^3+ and Cu^2+ solutions (c = 0,2 mmol/L), solutions of chelants are added: • Na4EDTA at 0,4 mmol/L • Na4EDTA at 2 mmol/L • Only chelant (Dimethylglucamine or Piroctone Olamine) at 0,6 mmol/L • Chelant (Dimethylglucamine or Piroctone Olamine) at 0,6 mmol/L + Na4EDTA 0,4 mmol/L • Chelant (Dimethylglucamine or Piroctone Olamine) at 0,6 mmol/L + Na4EDTA 2 mmol/L

[5] abbreviates: Fe^3+ solution 0,2 mmol/L with single chelant.
Where [6] appears, read: Fe^3+ solution 0,2 mmol/L, single chelant added at c=0,2 mmol/L, observed color and precipitate.
Where [7] appears, read: Cu^2+ solution 0,2 mmol/L with single chelant.
Setting [8] is: Cu^2+ solution 0,2 mmol/L, single chelant added at c=0,2 mmol/L, observed color and precipitate.

For the molecule `CC(C)(N)CO` [Aminomethylpropanol], the pH in data set [1] (setting [5]) was 4.0; in data set [2] (setting [7]) it was 9.2. Besides, the Result result was “Clear solution with distinct orange precipitate” in data set [1] (setting [6]), “Clear solution with distinct brown precipitate” in data set [2] (setting [8]) and “Clear solution with distinct brown precipitate” in data set [3].

`CN(C)C[C@H](O)[C@@H](O)[C@H](O)[C@H](O)CO` [Dimethylglucamine, N,N-dimethylglucamine]: the “complexes formed with Iron^3+ ions” value in data set [1] was “distinct orange complexes”. Besides, the pH in data set [1] (setting [5]) is on record as 3.4; in data set [2] (setting [7]) it was 6.5. The Result result is given as “Clear solution with distinct orange precipitate” in data set [1] (setting [6]); “Clear, light blue solution” in data set [2] (setting [8]); “Clear solution with distinct orange precipitate” in data set [4] (only chelant at 0,6 mmol/L); “Clear light blue solution” in data set [3]. Moreover, in data set [2], the “complexes formed with Copper^2+ ions” value is “blue complexes”. Moreover, the “chelating strength for Iron^3+ ions relative to EDTA” value in data set [4] was “stronger chelating agent than EDTA”. In data set [3] (both chelants present at 0,6 mmol/L), the “complex formed in presence of Aminomethylpropanol and Cu^2+ ions” value was “distinct blue complex of Dimethylglucamine is formed instead of brown complex of Aminomethylpropanol and Cu^2+ ions”.

Regarding `O=C(O)CN(CCN(CC(=O)O)CC(=O)O)CC(=O)O` [EDTA, ethylenediaminetetraacetic acid], the Result result in data set [1] was “Clear, very slightly yellowish solution”; in data set [2] it was “Clear, light blue solution”; in data set [4] (EDTA 0.4 mmol/L, alone or with chelant at 0,6 mmol/L) it was “Clear, very slightly yellowish solution”; in data set [4] (EDTA 2 mmol/L, alone or with chelant at 0,6 mmol/L) it was “Clear, very slightly yellowish solution”. Further, the pH in data set [1] is 10.6; in data set [2], 10.0.

As for `NCC(=O)O` [Glycine], the pH in data set [1] (setting [5]) is listed as 3.3; in data set [2] (setting [7]), 4.6. Moreover, the Result entry in data set [1] (setting [6]) is listed as “Clear solution with distinct orange precipitate”; in data set [2] (setting [8]), “Clear, slightly bluish solution”.

With `Cc1cc(CC(C)CC(C)(C)C)n(O)c(=O)c1.NCCO` (stereo not shown) [Piroctone Olamine], the pH amounted to 3.8 in data set [1] (setting [5]) and 8.3 in data set [2] (setting [7]). The Result entry in data set [1] (setting [6]) is given as “Turbid solution with distinct orange precipitate”; in data set [2] (setting [8]) it was “Turbid, light blue solution”; in data set [4] (only chelant at 0,6 mmol/L), “Turbid yellowish solution with distinct orange precipitate”. In addition, the “chelating strength for Iron^3+ ions relative to EDTA” value in data set [4] is “stronger than EDTA”.

(Values after patent EP4245293B1, “USE OF SUGAR AMINES AS COMPLEXING AGENTS” (Clariant International Ltd, priority 2022, dated 2023).)
